Results from US4241182A, “Fortimicin factors KG1, KG2 and KG3 and processes for production thereof” (Kyowa Hakko Kogyo Co., Ltd., priority 1978, dated 1980).
In brackets after ≈: the same amount, converted by molar mass. Read-outs that look alike come from different tables or passages of the source.

Assays:
[1] = test system: Bacillus subtilis No. 10707; test: Activity of isolated substance (units per mg), paper disc method; type: cell-based
Description: After the completion of fermentation, the culture liquor is adjusted to pH 2.5 with concentrated sulfuric acid and is stirred for 30 minutes. Thereafter, about 7 kg of a filter aid, Radiolite No. 600 (product of Showa Kagaku Kogyo Co., Ltd., Japan) is added to the culture liquor and the microbial cells are removed by filtration. The filtrate is adjusted to pH 7.5 by the addition of 6 N sodium hydroxide, and then flowed through a column packed with about 20 l of a cation exchange resin, Amberlite IRC-50 (ammonium form). The active principles are adsorbed on the resin, and the effluent is discarded. After the resin is washed with water, elution of the active principles is carried out with 1 N aqueous ammonia. The eluate is subjected to determination of activity by a paper disc method using an agar plate of Bacillus subtilis No. 10707. Fractions showing an activity are combined and concentrated under reduced pressure to about 1 l. The concentrate is adjusted to pH 7 with concentrated hydrochloric acid and then flowed through a column packed with 3 l of Amberlite CG-50 (ammonium form). After the resin is washed with water, elution is carried out with 0.1 N NH4 OH containing 0.1 M NH4 Cl. The eluate is taken in 500 ml fractions. Each fraction is subjected to determination of antibacterial activity against Bacillus subtilis No. 10707 and identification of active component by silica gel thin layer chromatography [Developer: the lower layer of a mixed solvent of chloroform, methanol and concentrated aqueous ammonia (2:1:1 by volume), Coloring agent: ninhydrin]. After the volume of the eluate reaches about 3 l, Fortimicin factors KG1, KG2 and KG3 begin to be eluted. The fractions containing Fortimicin factors KG1, KG2 and KG3 are collected, concentrated under reduced pressure to remove ammonia, neutralized with concentrated hydrochloric acid and flowed through a column packed with 500 ml of Amberlite IRC-50 (ammonium form). After the resin is washed with water, elution is carried out with 0.5 N aqueous ammonia. The active fractions are collected, concentrated under reduced pressure and freeze-dried to obtain 2 g of a white powder. The powder contains in it 250 mg of Fortimicin KG1, 640 mg of Fortimicin KG2 and 330 mg of Fortimicin KG3.
2 g of the crude powder is placed on a silica gel column (Silica gel: produced by Wako Junyaku Co., Ltd., Japan, Diameter of column: about 3 cm). Development is carried out with the lower layer of a mixed solvent of chloroform, methanol and concentrated aqueous ammonia (3:1:1 by volume). The eluate is taken in 20 ml fractions. Each fraction is subjected to the silica gel thin layer chromatography. First, Fortimicin B is eluted and then Fortimicin factors KG2, KG1 and KG3 are eluted in this order. The fractions respectively containing Fortimicin factors KG1, KG2 and KG3 are collected, concentrated under reduced pressure and freeze-dried to obtain 200 mg of Fortimicin KG1, [Activity: 970 u/mg (u: unit)], 500 mg of Fortimicin KG2 (Activity: 970 u/mg) and 250 mg of Fortimicin KG3 (Activity: 950 u/mg) (Activity of each of the purified substances is considered to be 1000 u/mg).

[2] = Solubility of the free base; type: physicochemical; conditions: for solubility in ethanol and acetone / solubility in methanol / solubility in organic solvents such as chloroform, benzene, ethyl acetate, butyl acetate, ethyl ether, butanol, petroleum ether, n-hexane / solubility in water: free base
Escherichia coli ATCC 26 = test: Antibacterial spectrum, agar dilution method; type: cell-based
Source text: (§1) Table 3 illustrates the antibacterial spectra of Fortimicin factors KG1, KG2 and KG3 against various microorganisms.
(§2) (Minimum Inhibitory Concentration, μg/ml measured by
(§3) agar dilution method at pH 8.0)

[3] = test system: Proteus vulgaris ATCC 6897; test: Antibacterial spectrum, agar dilution method; type: cell-based
Source text: as §1, §2, §3

Escherichia coli KY8348 = test: Antibacterial spectrum, agar dilution method; type: cell-based; conditions: for Minimum Inhibitory Concentration: Escherichia coli KY8348 (resistant to streptomycin and gentamicin), pH 8.0
Source text: as §1, §2, §3

[4] = test system: Pseudomonas aeruginosa BMH#1; test: Antibacterial spectrum, agar dilution method; type: cell-based
Source text: as §1, §2, §3

[5] = test system: Staphylococcus aureus ATCC 6538P; test: Antibacterial spectrum, agar dilution method; type: cell-based; conditions: for MIC: Staphylococcus aureus, ATCC6538P, pH 8, Staphylococcus aureus ATCC 6538P, read-out: Minimum Inhibitory Concentration
Source text: as §1, §2, §3

Escherichia coli KY8327 = test: Antibacterial spectrum, agar dilution method; type: cell-based; conditions: for MIC: Escherichia coli, KY8327, pH 8, Escherichia coli KY8327 (resistant to kanamycin, gentamicin and tobramycin), read-out: Minimum Inhibitory Concentration
Source text: as §1, §2, §3

Escherichia coli KY8302 = test: Antibacterial spectrum, agar dilution method; type: cell-based; conditions: for MIC: Escherichia coli, KY8302, pH 8, Escherichia coli KY8302 (resistant to chloramphenicol, streptomycin, kanamycin, paromomycin, tetracycline and spectinomycin), read-out: Minimum Inhibitory Concentration
Source text: as §1, §2, §3

[6] = test system: Gram-positive and Gram-negative bacteria; test: Antibacterial spectrum (summary of Table 3); type: cell-based
Source text: as §1, §2, §3

[7] = test system: Salmonella typhosa ATCC 9992; test: Antibacterial spectrum, agar dilution method; type: cell-based; conditions: Salmonella enterica, pH 8, read-out: Minimum Inhibitory Concentration
Source text: as §1, §2, §3

[8] = test system: Bacillus subtilis No. 10707; test: Antibacterial spectrum, agar dilution method; type: cell-based; conditions: pH 8.0, read-out: Minimum Inhibitory Concentration
Source text: as §1, §2, §3

[9] = test system: Klebsiella pneumoniae ATCC 10031; test: Antibacterial spectrum, agar dilution method; type: cell-based; conditions: ATCC10031, pH 8.0, read-out: Minimum Inhibitory Concentration
Source text: as §1, §2, §3

[10] = test system: Shigella sonnei ATCC 9290; test: Antibacterial spectrum, agar dilution method; type: cell-based; conditions: ATCC9290, pH 8.0, read-out: Minimum Inhibitory Concentration
Source text: as §1, §2, §3

[11] = Acute toxicity, intravenous administration in mice; conditions: mouse, in vivo
[12] = test system: certain strains of Escherichia coli which are resistant to various antibiotics; test: Antibacterial activity against resistant strains (summary of Table 3); type: cell-based
Source text: as §1, §2, §3

[13] = after silica gel chromatography, pure substance considered 1000 u/mg
[14] = ATCC6897, Proteus vulgaris ATCC 6897, pH 8.0, read-out: Minimum Inhibitory Concentration
[15] = Pseudomonas aeruginosa BMH#1, pH 8.0, read-out: Minimum Inhibitory Concentration

SMILES: CNC1C(O)C(OC2OC(C(C)N)=CCC2N)C(N)C(O)C1OC (stereo not drawn) [sulfate of Fortimicin KG2]
- Activity ([1]; sulfate, u: unit): 620 u/mg

SMILES: CNC1C(O)C(OC2OC(C(C)N)=CCC2N)C(N)C(O)C1OC (stereo not drawn) [Fortimicin KG2]
- solubility in ethanol and acetone [2]: slightly soluble
- solubility in methanol [2]: soluble
- solubility in organic solvents such as chloroform, benzene, ethyl acetate, butyl acetate, ethyl ether, butanol, petroleum ether, n-hexane [2]: insoluble
- solubility in water [2]: readily soluble
- solubility in the ordinary organic solvents [2]: poorly soluble
- Activity [1, 13]: 970 u/mg
- Minimum Inhibitory Concentration (Escherichia coli ATCC 26; Escherichia coli ATCC 26, pH 8.0): 41.7 µg/mL
- MIC [3, 14]: 83.3 µg/mL (≈ 240 µM)
- Minimum Inhibitory Concentration (Escherichia coli KY8348): 166.6 µg/mL
- MIC ([4]; Pseudomonas aeruginosa, pH 8, read-out: Minimum Inhibitory Concentration, Pseudomonas aeruginosa BMH#1): > 167 µg/mL
- Minimum Inhibitory Concentration ([5]; Staphylococcus aureus ATCC 6538P, pH 8.0): 10.5 µg/mL
- Minimum Inhibitory Concentration (Escherichia coli KY8327; Escherichia coli KY8327 (resistant to kanamycin, gentamicin and tobramycin), pH 8.0): 20.9 µg/mL
- Minimum Inhibitory Concentration (Escherichia coli KY8302; Escherichia coli KY8302 (resistant to chloramphenicol, streptomycin, kanamycin, paromomycin, tetracycline and spectinomycin), pH 8.0): 41.7 µg/mL
- antibacterial activity / spectrum (in words) [6]: broad antibacterial spectrum

SMILES: COC1C(O)C(N)C(OC2OC(C(C)N)=CCC2N)C(O)C1N(C)C(=O)CN (stereo not drawn) [Fortimicin KG3]
- solubility in ethanol and acetone [2]: slightly soluble
- solubility in methanol [2]: soluble
- solubility in organic solvents such as chloroform, benzene, ethyl acetate, butyl acetate, ethyl ether, butanol, petroleum ether, n-hexane [2]: insoluble
- solubility in water [2]: readily soluble
- solubility in the ordinary organic solvents [2]: poorly soluble
- Activity [1, 13]: 950 u/mg
- MIC (Escherichia coli ATCC 26; ATCC26, Escherichia coli ATCC 26, pH 8.0, read-out: Minimum Inhibitory Concentration): 0.33 µg/mL (≈ 0.818 µM)
- MIC [7]: 0.18 µg/mL (≈ 0.446 µM)
- MIC [8]: < 0.045 µg/mL
- MIC [3, 14]: 0.66 µg/mL (≈ 1.64 µM)
- MIC (Escherichia coli KY8348; Escherichia coli, KY8348, pH 8, Escherichia coli KY8348 (resistant to streptomycin and gentamicin), read-out: Minimum Inhibitory Concentration): 10.4 µg/mL (≈ 25.8 µM)
- MIC [4, 15]: 5.2 µg/mL (≈ 12.9 µM)
- MIC [5]: 0.083 µg/mL (≈ 0.206 µM)
- MIC (Escherichia coli KY8327): 0.33 µg/mL (≈ 0.818 µM)
- MIC (Escherichia coli KY8302): 0.52 µg/mL (≈ 1.29 µM)
- MIC [9]: 0.18 µg/mL (≈ 0.446 µM)
- MIC [10]: 0.7 µg/mL (≈ 1.73 µM)
- LD50 [11]: 225 mg/kg
- antibacterial activity / spectrum (in words) [6]: strong antibacterial activity against a broad range of Gram-positive and Gram-negative bacteria
- effectiveness against resistant Escherichia coli (in words) [12]: effective against certain strains of Escherichia coli which are resistant to various antibiotics

SMILES: COC1C(O)C(N)C(OC2OC(C(C)N)=CCC2N)C(O)C1N(C)C(=O)CN (stereo not drawn) [sulfate of Fortimicin KG3]
- Activity ([1]; sulfate, u: unit): 650 u/mg

SMILES: CNC1C(O)C(OC2OC(C(C)N)=CCC2N)C(N)C(O)C1OC (stereo not drawn) [Fortimicin KG1]
- solubility in ethanol and acetone [2]: slightly soluble
- solubility in methanol [2]: soluble
- solubility in organic solvents such as chloroform, benzene, ethyl acetate, butyl acetate, ethyl ether, butanol, petroleum ether, n-hexane [2]: insoluble
- solubility in water [2]: readily soluble
- solubility in the ordinary organic solvents [2]: poorly soluble
- Activity [1, 13]: 970 u/mg
- MIC (Escherichia coli ATCC 26; Escherichia coli, ATCC26, pH 8, read-out: Minimum Inhibitory Concentration, Escherichia coli ATCC 26): 26.1 µg/mL (≈ 75.3 µM)
- MIC ([3]; Proteus vulgaris, ATCC6897, pH 8, read-out: Minimum Inhibitory Concentration, Proteus vulgaris ATCC 6897): 26.1 µg/mL (≈ 75.3 µM)
- Minimum Inhibitory Concentration (Escherichia coli KY8348): 26.1 µg/mL
- MIC [4, 15]: > 208 µg/mL
- MIC [5]: 13.1 µg/mL (≈ 37.8 µM)
- MIC (Escherichia coli KY8327): 26.1 µg/mL (≈ 75.3 µM)
- MIC (Escherichia coli KY8302): 26.1 µg/mL (≈ 75.3 µM)
- antibacterial activity / spectrum (in words) [6]: broad antibacterial spectrum

SMILES: CNC1C(O)C(OC2OC(C(C)N)=CCC2N)C(N)C(O)C1OC (stereo not drawn) [sulfate of Fortimicin KG1]
- Activity ([1]; sulfate, u: unit): 620 u/mg
